Assay results published in patent US5051419A, “Prevention or elimination of mycoplasma contamination of animal or plant cell cultures” (Dainippon Pharmaceutical Co., Ltd., priority 1988, dated 1991).
≈ marks a conversion by molar mass, not a printed value.

Legend:
M. pnumoniae Mac = assay: Anti-mycoplasmal activity (MIC), agar-dilution method; format: cell-based, Mycoplasma pneumoniae; conditions: Mycoplasma; agar dilution; M. pnumoniae Mac; read-out: MIC
Description: (§1) The minimum growth inhibitory concentrations (MIC; μg/ml) of the test chemicals were measured by the agar-dilution method.
(§2) (1) Preparation of a mycoplasma suspension for inoculation
(§3) A stored frozen suspension of mycoplasma (0.2 to 0.3 ml) was inoculated in 2 to 3 ml of a preculture medium to be described later. It was serially diluted tenfold until the dilution ratio reached 10,000 times. These diluted solutions were cultivated at 37° C. for 2 to 7 days. A culture having the highest dilution ratio was selected from those cultures in which a color change of the media was noted as a result of mycoplasma growth. It was diluted to 100 times with the preculture medium to prepare a mycoplasma suspension for inoculation.
(§4) The following preculture media were used.
(§5) For Mycoplasma pneumoniae and Acholeplasma laidlawii, Chanock liquid medium containing 0.5% glucose (pH 7.8) [Library of Bacteriology 2, "Procedures for Isolation and Identification of Human, Animal and Plant Mycoplasmas", edited by Japanese Society for Bacteriology, page 8 (1982), Saikon Publishing Co.] was used.
(§6) (2) Preparation of agar plates containing the test chemicals
(§7) A 1,000 μg/ml aqueous solution of each test chemical was prepared (a difficultly-soluble chemical was dissolved by adding an equimolar amount of sodium hydroxide; the same applies hereinafter). The solution was used as a base solution and its twofold serial dilutions were prepared. The diluted solutions were pipetted on plastic petri dishes each in an amount of 1 ml. The Chanock agar medium (for Mycoplasma hyorhinis, 0.5% mucin was further added) described at page 9 of the above cited "Procedures for Isolation and Identification of Human, Animal and Plant Mycoplasmas" was heated and kept at 55° C. and put in an amount of 9 ml in each of the petri dishes containing the test chemicals and fully mixed with the test chemicals to prepare agar plates containing the test chemicals.
(§8) The mycoplasma suspension for inoculation prepared by the procedure described in section (1) was inoculated in an amount of about 3 microliters on each of the chemical-containing agar plates by means of a Cathra-replicator (3 mm pin). The plates on which Mycoplasma pneumoniae, Mycoplasma arginini, and Acholeplasma laidlawii and Mycoplasma hyorhinis were inoculated were tightly packed in a plastic bag together with the plasic petri dishes including water-immersed absorbent cotton. Mycoplasma pneumoniae was aerobically cultivated at 37° C. under highly humid conditions for 7 days; and Mycoplasma arginini and Acholeplasma laidlawii, for 2 days. The other mycoplasma species were cultivated anaerobically for 2 days by using a GasPak anaerobic system (BBL). After the cultivation, growth of mycoplasma were observed under an OLYMPUS microscope (20-100 X). The lowest concentration of the test chemical at which no growth of mycoplasma was noted is defined as MIC.

A. laidlawii PG8 = assay: as above; format: cell-based; conditions: Acholeplasma laidlawii; agar dilution; A. laidlawii PG8; read-out: MIC
Description: as §1, §2, §3, §4, §5, §6, §7, §8

mycoplasma = assay: Anti-mycoplasmal activity (MIC), agar-dilution method, all species of Table 1 together; format: cell-based; conditions: in words
Description: as §1, §2, §3, §6
A 1,000 μg/ml aqueous solution of each test chemical was prepared (a difficultly-soluble chemical was dissolved by adding an equimolar amount of sodium hydroxide; the same applies hereinafter). The solution was used as a base solution and its twofold serial dilutions were prepared. The diluted solutions were pipetted on plastic petri dishes each in an amount of 1 ml. […]

M. orale CH-19299 = assay: Anti-mycoplasmal activity (MIC, MMC), liquid dilution method; format: cell-based, Mycoplasma orale; conditions: Metamycoplasma orale, liquid dilution, M. orale CH-19299; for MBC: CH19299, 120 h, read-out: MMC; for MIC: CH19299, read-out: MIC
Description: The minimum growth inhibitory concentration (MIC, μg/ml) and minimum mycoplasmacidal concentration (MMC, μg/ml) of test chemicals were measured by the liquid dilution method. The method of measuring MIC in this example differs from that used in Test Example 1.
A 1,000 μg/ml aqueous solution of a test chemical was prepared, and diluted to 5 times with a preculture medium. The dilution (200 μg/ml) was serially diluted twofold with the same medium in a 8-well reservoir. Fifty microliters of each diluted solution was distributed in the wells of a microplate. A well to which no test chemical was added was used as a control.
A mycoplasma suspension for inoculation prepared as in Test Example 1 was pipetted in an amount of 50 microliters to each of the wells. The microplates were sealed by a plate seal, shaken by a micromixer, and cultivated at 37° C. for 5 days. In the control to which no test chemical was added, color change of the medium by the growth of mycoplasma was observed after two days from the start of the cultivation. At this time, 3 microliters of the liquid culture was inoculated in drug-free Chanock agar medium by using a Cathra-replicator. The liquid culture and the agar medium were further cultivated at 37° C. for 3 days (anaerobically in the case of M. orale, and aerobically in the case of A. laidlawii and M. arginini). MIC and MMC were determined from the results of observation on the 5th day. MIC was defined as the lowest concentration of the test chemical at which growth of mycoplasma in the drug-containing liquid medium was not noted, and MMC, as that in the drug-free agar medium.

[1] = test system: spontaneously contaminated human lung carcinoma cells [I]; assay: Activity of eliminating spontaneously contaminated mycoplasmas, cell [I]; format: cell-based, mycoplasma species unknown; human cells; further: key: +: mycoplasma positive; -: mycoplasma negative
Description: (§9) Mycoplasma-contaminated L-929 cells were cultivated as described in the preceding section. A 1,000 μg/ml aqueous solution of a test chemical was prepared, and diluted to predetermined concentrations with Eagle's minimum essential medium. The diluted solutions were added to the culture medium. Two petri dishes were used for each concentration of the test chemical, and two circular cover glasses were put in one of them for examination of mycoplasma. No cover glass was put in the other petri dish, and it was used for subcultivation. Cultivation in the test chemical-containing medium was carried out for 4 days, and thereafter, the cultivation was continued for 3 weeks in a drug-free medium. Medium replacement was effected every 3 to 4 days, and subcultivation was carried out once a week. Examination for mycoplasma contamination was performed on the 4th and 7th days, and thereafter every week. The mycoplasmas were detected by the highly specific DNA-fluorochromic staining method.
(§10) The activity of test compound to eliminate mycoplasma contamination was tested as in Test Example 3 on spontaneously contaminated human lung carcinoma cells [I] and human melanoma cells [II].
(§11) The period during which the cultivation was continued in the presence of the test chemicals was 7 days, and the mycoplasma species which infected the cells were unknown.

[2] = test system: human melanoma cells [II]; assay: Activity of eliminating spontaneously contaminated mycoplasmas, cell [II]; format: cell-based, mycoplasma species unknown; human cells; further: key: +: mycoplasma positive; -: mycoplasma negative
Description: as §9, §10, §11

[3] = Cytotoxicity on FL cells (cell proliferation inhibition); format: cell-based, human; conditions: human, fl human amnion cells; ratio of FL cell IC50 to MIC for mycoplasmas
Description: (§12) Whether test chemicals would inhibit growth of cells was examined.
(§13) A 1,000 μg/ml aqueous solution of each of the test chemicals was serially diluted twofold with Eagle's minimum essential medium.
(§14) FL human-amnion cells (2×10^4 cells) were suspended in 3.6 ml of 10% FBS-MEM medium, put in petri dishes (diameter 60 mm) for tissue culture, and cultivated at 37° C. in 5% CO2 humidified atmosphere for 48 hours. The test chemical solution prepared as above was added in an amount of 0.4 ml to each of the petri dishes in predetermined concentrations, and the cells were cultivated for 3 days. After the cultivation, the medium was removed, and the remainder was washed once with Dulbecco's phosphate buffer (pH 7.4). The cells were peeled off by adding 0.2 ml of a 2.5% trypsin-0.002% EDTA mixed solution (1:9) and properly diluted with 10% FBS-MEM medium. Then, the number of the cells was counted by an Erma hemocytometer.
(§15) The cell proliferation rate was calculated by following formula [formula]

FL human-amnion cells = assay: as above; format: cell-based; conditions: for IC50: Homo sapiens, 72 h, FL cells, 3 days, read-out: IC50 (50% cell proliferation inhibitory concentration)
Description: as §12, §13, §14, §15

Staphylococcus aureus = assay: Antibacterial activity (MIC); format: cell-based; conditions: for MIC: unit inferred

SMILES	MIC (M. pnumoniae Mac) [µg/mL]	MIC (A. laidlawii PG8) [µg/mL]	anti-mycoplasmal activity (MIC) compared with control compounds (mycoplasma)	MBC (M. orale CH-19299) [µg/mL]	MIC (M. orale CH-19299) [µg/mL]	mycoplasma elimination ([1]; 0.2 μg/ml, day 0)	mycoplasma elimination ([1]; 0.2 μg/ml, day 7)	mycoplasma elimination ([1]; 0.2 μg/ml, day 14)	mycoplasma elimination ([1]; 0.2 μg/ml, day 28)	mycoplasma elimination ([2]; 0.2 μg/ml, day 0)	mycoplasma elimination ([2]; 0.2 μg/ml, day 7)	mycoplasma elimination ([2]; 0.2 μg/ml, day 14)	mycoplasma elimination ([2]; 0.2 μg/ml, day 21)	mycoplasma elimination ([2]; 0.2 μg/ml, day 28)	selectivity ratio at 72 h [3]	IC50 (FL human-amnion cells) [µg/mL]	MIC (Staphylococcus aureus; Staphylococcus aureus) [µg/mL]	also measured
CC1CN(c2c(F)c(N)c3c(=O)c(C(=O)O)cn(C4CC4)c3c2F)CCN1 (stereo not drawn) [Compound 1]	0.025 (≈ 0.0661 µM)	0.1 (≈ 0.264 µM)	better than those of control compounds 2 to 4	0.39 (≈ 1.03 µM)	0.39 (≈ 1.03 µM)	+	+	+	+	+	-	+	+	+	66 to 528	13.2 (≈ 34.9 µM)	0.025 (≈ 0.0661 µM)	mycoplasma elimination ([1]; 0.39 μg/ml, day 0): +; mycoplasma elimination ([1]; 0.39 μg/ml, day 7): -; mycoplasma elimination ([1]; 0.39 μg/ml, day 14): -; mycoplasma elimination ([1]; 0.39 μg/ml, day 28): -; mycoplasma elimination ([2]; 0.39 μg/ml, day 0): +; mycoplasma elimination ([2]; 0.39 μg/ml, day 7): -; mycoplasma elimination ([2]; 0.39 μg/ml, day 14): -; mycoplasma elimination ([2]; 0.39 μg/ml, day 21): -; mycoplasma elimination ([2]; 0.39 μg/ml, day 28): -
CN(C)c1ccc(O)c2c1C[C@H]1C[C@H]3[C@H](N(C)C)C(O)=C(C(N)=O)C(=O)[C@@]3(O)C(O)=C1C2=O [Compound 3, minocycline]	0.78 (≈ 1.7 µM)	0.2 (≈ 0.437 µM)		25 (≈ 54.6 µM)	0.39 (≈ 0.852 µM)													
NCC1CN(c2c(F)c(N)c3c(=O)c(C(=O)O)cn(C4CC4)c3c2F)CCO1 (stereo not drawn) [Compound A, 5-amino-7-(2-aminomethylmorpholino)-1-cyclopropyl-6,8-difluoro-1,4-dihydro-4-oxoquinoline-3-carboxylic acid]	0.0125 (≈ 0.0317 µM)	0.0125 (≈ 0.0317 µM)	more potent than those of control compounds 1 to 4	0.05 (≈ 0.127 µM)	0.05 (≈ 0.127 µM)	+	-	-	-	+	-	-	-	-	180 to 1440	18 (≈ 45.6 µM)	0.0063 (≈ 0.016 µM)	mycoplasma elimination ([1]; 0.1 μg/ml, day 0): +; mycoplasma elimination ([1]; 0.1 μg/ml, day 7): +; mycoplasma elimination ([1]; 0.1 μg/ml, day 14): +; mycoplasma elimination ([1]; 0.1 μg/ml, day 28): +; mycoplasma elimination ([2]; 0.1 μg/ml, day 0): +; mycoplasma elimination ([2]; 0.1 μg/ml, day 7): -; mycoplasma elimination ([2]; 0.1 μg/ml, day 14): +; mycoplasma elimination ([2]; 0.1 μg/ml, day 21): +; mycoplasma elimination ([2]; 0.1 μg/ml, day 28): +; safety range (FL human-amnion cells; in words, IC50/MIC): the safety range is broadest in compound A; toxicity on cultivated cells (FL human-amnion cells; in words, summary): little toxicity on cultivated cells; antibacterial activity (Staphylococcus aureus; in words): potent antibacterial activity and is superior to control compounds 1 to 4; antibacterial activity relative to compound 1 (Staphylococcus aureus; in words, Staphylococcus aureus): about four times as potent antibacterial activity as compound 1
